Entries after “also recorded” stand apart in the source; their conditions may differ. Bridge positions count the residues as written; N and C are the ends. Square brackets hold non-standard residues; d marks the D form. Ends that are not written are not given here. 1Nal = N[C@@H](Cc1cccc2ccccc12)C(=O)O; Sar = CNCC(=O)O
Tests used:
[1] = test system: human, bone marrow derived CD34+ cells; assay: C/BFU-e assay (erythroid colonies); assay type: cell-based; conditions: Table 6, 14 days
Description: EPO-R signaling stimulates the differentiation of bone marrow stem cells into proliferating red blood cell precursors. This assay measures the ability of test peptides to stimulate the proliferation and differentiation of red blood cell precursors from primary human bone marrow pluripotent stem cells.
For this assay, serial dilutions of test peptide are made in IMDM medium (Gibco) supplemented with 10% FBS (Hyclone). These serial dilutions, or positive control EPO peptide, are then added to methylcellulose to give a final volume of 1.5 mL. The methylcellulose and peptide mixture is then vortexed thoroughly. Aliquots (100,000 cells/mL) of human, bone marrow derived CD34+ cells (Poietics/Cambrex) are thawed. The thawed cells are gently added to 0.1 mL of 1 mg/ml DNAse (Stem Cells) in a 50 mL tube. Next, 40-50 mL IMDM medium is added gently to cells: the medium is added drop by drop along the side of the 50 mL tube for the first 10 mL, and then the remaining volume of medium is slowly dispensed along the side of the tube. The cells are then spun at 900 rpm for 20 min, and the media removed carefully by gentle aspiration. The cells are resuspended in 1 ml of IMDM medium and the cell density per mL is counted on hemacytometer slide (10 μL aliquot of cell suspension on slide, and cell density is the average count×10,000 cells/ml). The cells are then diluted in IMDM medium to a cell density of 15,000 cells/mL. A 100 μL of diluted cells is then added to each 1.5 mL methyl cellulose plus peptide sample (final cell concentration in assay media is 1000 cells/mL), and the mixture is vortexed. Allow the bubbles in the mixture to disappear, and then aspirate 1 mL using blunt-end needle. Add 0.25 mL aspirated mixture from each sample into each of 4 wells of a 24-well plate (Falcon brand). Incubate the plated mixtures at 37° C. under 5% CO2 in a humid incubator for 14 days. Score for the presence of erythroid colonies using a phase microscope (5×-10× objective, final magnification of 100×). The concentration of test peptide at which the number of formed colonies is 90% of maximum, relative to that observed with the EPO positive control, is recorded as the EC90 [See Table 2: C/BFU-e EC90].
For this assay, serial dilutions of test peptide are made in IMDM medium (Gibco) supplemented with 10% FBS (Hyclone). These serial dilutions, or positive control EPO peptide, are then added to methylcellulose to give a final volume of 1.5mL. The methylcellulose and peptide mixture is then vortexed thoroughly. […] The cells are resuspended in 1 ml of IMDM medium and the cell density per mL is counted on hemacytometer slide (10 μL aliquot of cell suspension on slide, and cell density is the average count×10,000 cells/ml). […]

[2] = test system: rat model of PRCA; assay: Rat model of PRCA (anti-EPO antibody-induced anemia); assay type: in vivo
Description: The efficacy of Peptide I to correct anemia due to recombinant EPO anti-body induced PRCA was assessed in a rat model of PRCA. […] The rat model of PRCA consisted of induction of anti-EPO antibodies in a rat to yield a model of PRCA. Subsequent to inducing PRCA in rats, the erythropoietic activity of Peptide I, compared to rats treated with recombinant EPO, was evaluated in the rat model of PRCA following weekly administrations of Peptide I or recombinant EPO.
Additionally, administration of Peptide I to rats positive for anti-EPO antibodies allowed evaluation of Peptide I to correct PRCA-induced anemia.
Experiments were also conducted in anemic anti-EPO antibody positive rats to determine if normal hemoglobin levels could be maintained. The anemic anti-EPO antibody positive rats were treated with Peptide I approximately every 4 weeks for a total of additional seven injections. Hemoglobin levels in the Peptide I and vehicle-treated antibody-positive rats were compared to concurrent controls.
EPO-induced PRCA in humans and rats characterized by severe anemia associated with the presence of anti-EPO antibodies, an absence of reticulocytes, and limited bone marrow erythroid precursors with concomitant presence of normal numbers of granulocytic and megakaryocytic lineages. Peptide I corrected the EPO-induced anemia in these animals.

[3] = test system: bone marrow cultures established from healthy human donors; assay: Bone marrow cultures with patient serum (erythroid colonies); assay type: cell-based
Description: The anti-Peptide I antibody assay was performed in the laboratories of the Sponsor using an ELISA method, with a sensitivity of 300 ng/mL [Fan Q., et al. (2006) Exp. Hematol. 34: 1303-11; Woodburn K W, et al. (2007) Exp. Hematol. 35: 1201-8]. Anti-EPO antibodies were measured by radioimmune precipitation assay. To confirm that the patient's antibodies were not cross-reactive with Peptide I, serum from three patients was tested in bone marrow cultures (established from healthy human donors, as previously described [Verhelst D, et al. (2004) Lancet 363: 1768-71]). Culture conditions included 20% of either fetal calf serum as a control or one of the study patient's serum. Cultures included either 1 IU/mL of recombinant human EPO or 0.55 μg/mL of Peptide I (a concentration previously shown to be equivalent to 1 IU/mL of EPO for erythroid growth). Erythroid colonies were counted on day 7.

For “PEGylated homodimer of peptide monomers (AcG)GLYACHMGPIT(1-nal)VCQPLR(MeG)K (SEQ ID NO: 2), EPO-R agonist (Ac-GGLYACHMGPIT[1Nal]VCQPLR[Sar]K; disulfide 6-15 (inferred); not fully specified (residue 21); printed as (AcG)GLYACHMGPIT(1-nal)VCQPLR(MeG)K; also: PEGylated) [Peptide I]”, the EC90 [1] was 3 nM, the “maintenance of hemoglobin levels” value ([2]; anemic anti-EPO antibody-positive rats, repeat administrations every 4 weeks) was “sustained correction of hemoglobin levels” and the reticulocytosis ([2]; anti-EPO antibody-positive anemic rats, compared to recombinant EPO treated rats) was “significantly increased”. The hemoglobin levels ([2]; anti-EPO positive animals versus antibody-negative control rats) was “greater than hemoglobin levels achieved in the anti-EPO antibody-negative control rats”, the “correction of antibody-induced anemia” value ([2]; rat model of PRCA) was “corrected antibody-induced anemia; also recorded: reversed” and the “erythroid growth in presence of patient serum” value ([3]; 20% serum of three patients, 1 IU/mL EPO or 0.55 μg/mL Peptide I, colonies counted day 7) was “erythroid differentiation was observed”. For the same substance, the “concentration equivalent to 1 IU/mL of EPO for erythroid growth” value ([3]; previously shown) was 0.55 µg/mL.
